Each structure is given as a SMILES string.

The source of these data is patent EP4631938A1, “NITROGEN-CONTAINING HETEROCYCLE WITH SEROTONIN RECEPTOR-BINDING ACTIVITY AND CARBOCYCLIC DERIVATIVE” (Shionogi & Co., Ltd, priority 2022, dated 2024).

For assay [1], the target named is T1, human recombinant 5-HT2A receptor (Homo sapiens, UniProt P28223).
T1 construct: expressed in transfected cells; host or cells: Jump-In HEK cells (membrane preparation)
Kind of assay: Test Example 1-2: 5-HT2A receptor binding inhibition test ([3H]-Ketanserin; non-specific ligand Ketanserin). Conditions: [3H]-Ketanserin; non-specific binding with 500 µmol/L Ketanserin; room temperature (25°C), 1.5 hours; read-out: h 5-HT2A Ki. The essentials:
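Membranes expressing the receptor were incubated with [3H]-ketanserin and compound for 1.5 h at 25 °C, then filtered onto plates presoaked in 50 mmol/L Tris-HCl pH 7.4 and scintillation-counted. Non-specific binding was defined with 500 µmol/L unlabeled ketanserin. Ki was taken from dose-response curves, with Kd set for each membrane lot by Scatchard analysis.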

The target in assay [2] is T2, human recombinant 5-HT2C receptor (Homo sapiens, UniProt P28335).
T2 construct: expressed in transfected cells; host or cells: Jump-In HEK cells (membrane preparation)
T2 sequence (P28335 33-458): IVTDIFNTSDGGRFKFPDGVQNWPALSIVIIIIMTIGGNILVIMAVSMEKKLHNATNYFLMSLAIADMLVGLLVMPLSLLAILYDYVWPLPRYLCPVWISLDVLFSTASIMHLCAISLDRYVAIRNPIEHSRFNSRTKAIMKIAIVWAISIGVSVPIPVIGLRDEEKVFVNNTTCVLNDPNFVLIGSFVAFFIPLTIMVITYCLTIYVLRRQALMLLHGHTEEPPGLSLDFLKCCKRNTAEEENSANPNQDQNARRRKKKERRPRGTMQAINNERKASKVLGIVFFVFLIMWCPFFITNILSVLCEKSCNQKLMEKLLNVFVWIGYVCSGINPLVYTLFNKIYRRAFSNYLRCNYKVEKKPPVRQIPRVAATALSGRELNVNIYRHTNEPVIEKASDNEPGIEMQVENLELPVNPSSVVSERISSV
The assay can be described thus: Test Example 2: 5-HT2C receptor binding inhibition test ([3H]-Mesulergine; non-specific ligand Serotonin HCl). Conditions: human serotonin 5-HT2C receptor binding activity. The essentials:
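Filtration binding to membranes bearing human 5-HT2C with [3H]-mesulergine, 2 h at 37°C; non-specific binding defined with 500 µmol/L serotonin HCl, total binding with vehicle. Inhibition rate computed from cpm; Ki derived from dose-response curve, with ligand Kd from Scatchard analysis of saturation binding.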

T1 sequence (P28223 whole entry): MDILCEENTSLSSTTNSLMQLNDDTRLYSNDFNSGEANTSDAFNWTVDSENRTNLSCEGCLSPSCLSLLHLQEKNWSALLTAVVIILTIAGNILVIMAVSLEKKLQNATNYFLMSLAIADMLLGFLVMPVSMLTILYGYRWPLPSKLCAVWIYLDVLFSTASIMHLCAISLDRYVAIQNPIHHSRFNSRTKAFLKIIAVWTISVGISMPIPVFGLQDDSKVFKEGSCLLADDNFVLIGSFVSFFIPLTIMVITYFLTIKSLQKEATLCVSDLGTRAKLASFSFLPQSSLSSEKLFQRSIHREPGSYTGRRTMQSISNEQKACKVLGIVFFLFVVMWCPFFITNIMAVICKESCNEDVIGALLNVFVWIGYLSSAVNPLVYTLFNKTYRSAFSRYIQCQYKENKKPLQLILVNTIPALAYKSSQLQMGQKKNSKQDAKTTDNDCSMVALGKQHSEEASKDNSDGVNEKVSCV

As to `CCc1coc(-c2cnc(Nc3cc(-c4c(C)nc(COC)nc4C)c(OCCO)cn3)c(Cl)c2)n1` [Compound I-331], the Ki worked out at 1.91 nM in assay [1] and 1.66 nM in assay [2].

Regarding `COCc1nc(C)c(-c2cc(Nc3ncc(OC4CC(F)(F)C4)cc3Cl)ncc2OCCO)c(C)n1` [Compound I-332], the Ki amounted to 5.58 nM in assay [1] and 3.12 nM in assay [2].

With `COCc1nc(C)c(-c2cc(Nc3ncc(OCC(F)(F)C(F)F)cc3Cl)ncc2OCCO)c(C)n1` [Compound I-333], the Ki in assay [1] turned out to be 9.02 nM; in assay [2], 4.19 nM.

Regarding `COCc1nc(C)c(-c2nc(Nc3ccc(C(F)(F)F)cn3)c(F)cc2OCCO)c(C)n1` [Compound I-334], the Ki was 3.49 nM in assay [1] and 9.69 nM in assay [2].

As for `COCc1nc(C)c(-c2cc(Nc3ncc(-c4ncc(C)s4)cc3Cl)ncc2OCCO)c(C)n1` [Compound I-335], the values for the Ki in assay [1] and in assay [2] were 1.18 nM and 1.87 nM, respectively.

`Cn1ncc(Br)c1-c1nc(Nc2ccc(C(F)(F)F)cc2)ncc1OCCO` [Compound I-336]: the Ki in assay [1] is 0.226 nM; in assay [2], 0.748 nM.

With `Cn1ncc(Br)c1-c1nc(Nc2ccc(C(F)(F)F)cn2)ncc1OCCO` [Compound I-337], the Ki in assay [1] came out at 0.313 nM; in assay [2] it was 7.18 nM.

`Cn1ncc(Br)c1-c1nc(Nc2ccc(C(F)(F)F)cc2F)ncc1OCCO` [Compound I-338]: the figures for the Ki in assay [1] and in assay [2] were 0.223 nM and 0.765 nM, respectively.

As for `Cn1ncc(Br)c1-c1nc(Nc2ccc(Cl)cc2)ncc1OCCO` [Compound I-339], the Ki came to 0.217 nM in assay [1] and 2.52 nM in assay [2].

With `Cn1ncc(Br)c1-c1nc(Nc2ccc(Cl)cc2F)ncc1OCCO` [Compound I-340], the Ki turned out to be 0.212 nM in assay [1] and 1.38 nM in assay [2].

In the case of `Cc1cc(Cl)cnc1Nc1ccc(OCCO)c(-c2c(Br)cnn2C)c1` [Compound I-341], the Ki in assay [1] was 0.303 nM; in assay [2], 0.14 nM.

As for `Cn1ncc(Br)c1-c1nc(Nc2ccc(Cl)cc2Cl)ncc1OCCO` [Compound I-342], the Ki amounted to 0.256 nM in assay [1] and 1.88 nM in assay [2].

`Cc1cc(Cl)ccc1Nc1ncc(OCCO)c(-c2c(Br)cnn2C)n1` [Compound I-343]: the values for the Ki in assay [1] and in assay [2] were 0.184 nM and 2.42 nM, respectively.

On to `Cn1ncc(Br)c1-c1nc(Nc2ccc(Cl)c(Cl)c2)ncc1OCCO` [Compound I-344], for which the Ki in assay [1] was 0.26 nM; in assay [2], 6.63 nM.

For `Cn1ncc(Br)c1-c1nc(Nc2ccc(Cl)c(F)c2)ncc1OCCO` [Compound I-345], the Ki in assay [1] came to 0.257 nM; in assay [2] it was 3.12 nM.

As to `Cc1cc(OC(F)(F)F)ccc1Nc1ncc(OCCO)c(-c2c(Br)cnn2C)n1` [Compound I-346], the values for the Ki in assay [1] and in assay [2] were 0.24 nM and 1.7 nM, respectively.

With `Cn1ncc(Br)c1-c1nc(Nc2ccc(OC(F)(F)F)cc2)ncc1OCCO` [Compound I-347], the Ki in assay [1] was 0.262 nM; in assay [2], 1.08 nM.

For the molecule `Cc1cc(Nc2ncc(OCCO)c(-c3c(Br)cnn3C)n2)ccc1Cl` [Compound I-348], the Ki in assay [1] was determined as 0.215 nM; in assay [2], 6.11 nM.

On to `Cn1ncc(Br)c1-c1nc(Nc2ccc(C(F)(F)F)nc2)ncc1OCCO` [Compound I-349], for which the Ki amounted to 0.254 nM in assay [1] and 47.7 nM in assay [2].

Regarding `Cn1ncc(Br)c1-c1nc(Nc2ccc(Cl)c(C(F)(F)F)c2)ncc1OCCO` [Compound I-350], the Ki was 0.204 nM in assay [1] and 6.51 nM in assay [2].

For the molecule `Cn1ncc(Br)c1-c1nc(Nc2ccc(C(F)(F)F)c(Cl)c2)ncc1OCCO` [Compound I-351], the Ki in assay [1] came out at 0.242 nM; in assay [2], 1.77 nM.

`Cn1ncc(Br)c1-c1nc(Nc2ccc(C#N)cc2)ncc1OCCO` [Compound I-352]: the Ki amounted to 0.202 nM in assay [1] and 5.99 nM in assay [2].

`Cn1ncc(Br)c1-c1nc(Nc2ccc(OC(F)F)cc2)ncc1OCCO` [Compound I-353]: the Ki in assay [1] stood at 0.179 nM; in assay [2], 0.975 nM.

With `Cn1ncc(Br)c1-c1nc(Nc2ccc(C#N)cc2F)ncc1OCCO` [Compound I-354], the Ki in assay [1] was 0.319 nM; in assay [2], 8.53 nM.

In the case of `Cc1cc(C#N)ccc1Nc1ncc(OCCO)c(-c2c(Br)cnn2C)n1` [Compound I-355], the Ki worked out at 0.398 nM in assay [1] and 8.2 nM in assay [2].

Consider `Cc1cnn(C)c1-c1nc(Nc2ccc(OC(F)(F)F)cc2)ncc1OCCO` [Compound I-356], for which the Ki in assay [1] is 0.163 nM; in assay [2] it was 7.79 nM.

Turning to `Cc1nc(C)c(-c2nc(Nc3ccc(OC(F)(F)F)cc3)ncc2OCCO)c(C)n1` [Compound I-357], the values for the Ki in assay [1] and in assay [2] were 0.635 nM and 3.07 nM, respectively.

`O=C1NCc2c1cccc2-c1cc(Nc2ncc(C(F)(F)F)cc2F)ncc1OCCO` [Compound I-358]: the results for the Ki in assay [1] and in assay [2] were 0.603 nM and 5.78 nM, respectively.

In the case of `O=C1OCc2c1cccc2-c1cc(Nc2ncc(C(F)(F)F)cc2F)ncc1OCCO` [Compound I-360], the Ki came out at 1.22 nM in assay [1] and 54.8 nM in assay [2].

For the molecule `Cc1nc(C)c(-c2cc(Nc3ncc(C(F)(F)F)cc3F)ncc2O[C@H](C)CO)c(C)n1` [Compound I-361], the Ki worked out at 2.4 nM in assay [1] and 18.3 nM in assay [2].

Consider `C[C@H](CO)Oc1cnc(Nc2ncc(C(F)(F)F)cc2F)cc1-c1cccc2c1CNC2=O` [Compound I-362], for which the Ki in assay [1] stood at 0.924 nM; in assay [2], 25.2 nM.

As to `Cc1nc(C)c(-c2nc(Nc3ccc(-c4ccc(C(F)(F)F)nc4)cn3)c(F)cc2OCCO)c(C)n1` [Compound I-363], the Ki in assay [1] was 2.32 nM; in assay [2] it was 2.76 nM.

For the molecule `Cc1nc(C)c(-c2nc(Nc3ccc(-c4ccc(C(F)(F)F)nc4)cn3)c(F)cc2O[C@H](C)CO)c(C)n1` [Compound I-364], the Ki in assay [1] was 3.34 nM; in assay [2], 12.2 nM.

On to `COCc1nc(C)c(-c2nc(Nc3ccc(-c4ccc(C(F)(F)F)nc4)cn3)c(F)cc2OCCO)c(C)n1` [Compound I-365], for which the Ki came to 4.65 nM in assay [1] and 1.98 nM in assay [2].

As to `OCCOc1cnc(Nc2ncc(C(F)(F)F)cc2F)cc1-c1cccnc1C(F)F` [Compound I-366], the Ki in assay [1] came out at 2.19 nM; in assay [2], 59.1 nM.

As for `CCc1ncccc1-c1cc(Nc2ncc(C(F)(F)F)cc2F)ncc1OCCO` [Compound I-367], the Ki is 1.97 nM in assay [1] and 64.9 nM in assay [2].

Turning to `O=C1NCc2c1cncc2-c1cc(Nc2ncc(C(F)(F)F)cc2F)ncc1OCCO` [Compound I-368], the Ki in assay [1] is 2.13 nM; in assay [2], 51.2 nM.

Take `COC(=O)c1ccc(C)c(-c2cc(Nc3ncc(C(F)(F)F)cc3F)ncc2OCCO)c1` [Compound I-369]: the figures for the Ki in assay [1] and in assay [2] were 1.72 nM and 58.2 nM, respectively.

`COC(=O)c1ccc(-c2cc(Nc3ncc(C(F)(F)F)cc3F)ncc2OCCO)c(C)c1` [Compound I-370]: the inhibitory constant (Ki) amounted to 1.03 nM in assay [1] and 86.8 nM in assay [2].

Turning to `CNC(=O)c1cnc(C)c(-c2cc(Nc3ncc(C(F)(F)F)cc3F)ncc2OCCO)c1` [Compound I-371], the Ki was determined as 2.37 nM in assay [1] and 61.5 nM in assay [2].

With `Cc1cc(CO)ccc1-c1cc(Nc2ncc(C(F)(F)F)cc2F)ncc1OCCO` [Compound I-372], the Ki is 0.847 nM in assay [1] and 9.14 nM in assay [2].

For `Cc1ccc(CO)cc1-c1cc(Nc2ncc(C(F)(F)F)cc2F)ncc1OCCO` [Compound I-373], the Ki was determined as 1.21 nM in assay [1] and 64.7 nM in assay [2].

`Cc1nc(COC2CC2)nc(C)c1-c1cc(Nc2ncc(C(F)(F)F)cc2Cl)ncc1OCCO` [Compound I-374]: the Ki in assay [1] is 0.955 nM; in assay [2] it was 1.8 nM.

For the molecule `Cc1nc(COCC(F)F)nc(C)c1-c1cc(Nc2ncc(C(F)(F)F)cc2Cl)ncc1OCCO` [Compound I-375], the Ki in assay [1] came out at 1.27 nM; in assay [2], 1.57 nM.

On to `Cc1nc(CO[C@H]2CCOC2)nc(C)c1-c1cc(Nc2ncc(C(F)(F)F)cc2Cl)ncc1OCCO` [Compound I-377], for which the Ki in assay [1] was determined as 2.9 nM; in assay [2] it was 4.66 nM.

Take `Cc1cnn(Cc2nc(C)c(-c3cc(Nc4ncc(C(F)(F)F)cc4Cl)ncc3OCCO)c(C)n2)c1` [Compound I-379]: the Ki in assay [1] was 1.13 nM; in assay [2] it was 0.791 nM.

With `COc1nc(C)nc(OC)c1-c1cc(Nc2ncc(C(F)(F)F)cc2Cl)ncc1OCCO` [Compound I-380], the inhibition constant (Ki) in assay [1] stood at 0.527 nM; in assay [2], 7.28 nM.

As to `Cc1nc(COC2CCOCC2)nc(C)c1-c1cc(Nc2ncc(C(F)(F)F)cc2Cl)ncc1OCCO` [Compound I-381], the Ki in assay [1] turned out to be 2.66 nM; in assay [2], 3.58 nM.

For the molecule `Cc1nc(C)c(-c2nc(Nc3ccc(OC(F)(F)F)c(C)n3)c(F)cc2OCCO)c(C)n1` [Compound I-383], the Ki worked out at 2.57 nM in assay [1] and 4.59 nM in assay [2].

On to `Cc1nc(C)c(-c2nc(Nc3ccc(C(F)(F)F)c(C)n3)c(F)cc2OCCO)c(C)n1` [Compound I-384], for which the results for the Ki in assay [1] and in assay [2] were 2.87 nM and 4.58 nM, respectively.

Broadly, the Ki is a measure of affinity in units of concentration, obtained from inhibition or displacement.
